Measured values taken from ChEMBL document CHEMBL1158695, “Cytotoxic sterol derivatives from a marine sponge Homaxinella sp” (2005).
≈ marks a conversion by molar mass, not a printed value.

Legend:
Settings in all cases: read-out: ED50 (the source's name)
SK-MEL-2 = test: Cytotoxicity against human SK-MEL-2 cells; type: functional
XF498 = test: Cytotoxicity against human XF498 cells; type: functional
[1] = system: HCT-15 (human colon cancer); test: Cytotoxicity against human HCT15 cells
A549 = test: Cytotoxicity against human A549 cells; type: functional
SK-OV-3 = test: Cytotoxicity against human SKOV3 cells; type: functional

CC(C)C/C=C/[C@@H](C)[C@H]1CCC2C3=CC(=O)O[C@@]3(O)CC[C@@]21C (stereo not given in full) [DEMETHYLINCISTEROL A1]
EC50 (SK-MEL-2): 1.94 µg/mL (≈ 6.09 µM)
EC50 (XF498): 1.08 µg/mL (≈ 3.39 µM)
EC50 [1]: 1.42 µg/mL (≈ 4.46 µM)
EC50 (A549): 2.79 µg/mL (≈ 8.76 µM)
EC50 (SK-OV-3): 1.7 µg/mL (≈ 5.34 µM)

CC(C)[C@H](C)/C=C/[C@@H](C)[C@H]1CCC2C3=CC(=O)O[C@@]3(O)CC[C@@]21C (stereo not given in full) [DEMETHYLINCISTEROL A2]
EC50 (SK-MEL-2): 1.21 µg/mL (≈ 3.64 µM)
EC50 (XF498): 0.93 µg/mL (≈ 2.8 µM)
EC50 [1]: 1.28 µg/mL (≈ 3.85 µM)
EC50 (A549): 1.51 µg/mL (≈ 4.54 µM)
EC50 (SK-OV-3): 1.49 µg/mL (≈ 4.48 µM)

CC(C)[C@@H](C)/C=C/[C@@H](C)[C@H]1CCC2C3=CC(=O)O[C@@]3(O)CC[C@@]21C (stereo not given in full) [DEMETHYLINCISTEROL A3]
EC50 (SK-MEL-2): 1.3 µg/mL (≈ 3.91 µM)
EC50 (XF498): 1.14 µg/mL (≈ 3.43 µM)
EC50 [1]: 1.39 µg/mL (≈ 4.18 µM)
EC50 (A549): 1.62 µg/mL (≈ 4.87 µM)
EC50 (SK-OV-3): 1.97 µg/mL (≈ 5.93 µM)

CC[C@@H](/C=C/[C@@H](C)[C@H]1CCC2C3=CC(=O)O[C@@]3(O)CC[C@@]21C)C(C)C (stereo not given in full) [DEMETHYLINCISTEROL A4]
EC50 (SK-MEL-2): 0.55 µg/mL (≈ 1.59 µM)
EC50 (XF498): 0.68 µg/mL (≈ 1.96 µM)
EC50 [1]: 0.65 µg/mL (≈ 1.88 µM)
EC50 (A549): 0.92 µg/mL (≈ 2.66 µM)
EC50 (SK-OV-3): 0.79 µg/mL (≈ 2.28 µM)

COc1cccc2c1C(=O)c1c(O)c3c(c(O)c1C2=O)C[C@@](O)(C(=O)CO)C[C@@H]3O[C@H]1C[C@H](N)[C@H](O)[C@H](C)O1 [DOXORUBICIN]
EC50 (SK-MEL-2): 0.04 µg/mL (≈ 0.0736 µM)
EC50 (XF498): 0.07 µg/mL (≈ 0.129 µM)
EC50 [1]: 0.17 µg/mL (≈ 0.313 µM)
EC50 (A549): 0.11 µg/mL (≈ 0.202 µM)
EC50 (SK-OV-3): 0.09 µg/mL (≈ 0.166 µM)

CCCCO[C@@H]1C=C2[C@@H]3CC[C@H]([C@H](C)/C=C/CC(C)C)[C@@]3(C)CC[C@@H]2[C@@]2(C)CC[C@H](O)C[C@]12O [HOMAXISTEROL A1]
EC50 (SK-MEL-2): 6.88 µg/mL (≈ 14.6 µM)
EC50 (XF498): 6.33 µg/mL (≈ 13.4 µM)
EC50 [1]: 7.62 µg/mL (≈ 16.1 µM)
EC50 (A549): 8.54 µg/mL (≈ 18.1 µM)
EC50 (SK-OV-3): 7.57 µg/mL (≈ 16 µM)

CCCCO[C@@H]1C=C2[C@@H]3CC[C@H]([C@H](C)/C=C/[C@@H](C)C(C)C)[C@@]3(C)CC[C@@H]2[C@@]2(C)CC[C@H](O)C[C@]12O [HOMAXISTEROL A2]
EC50 (SK-MEL-2): 3.69 µg/mL (≈ 7.58 µM)
EC50 (XF498): 4.17 µg/mL (≈ 8.57 µM)
EC50 [1]: 4.4 µg/mL (≈ 9.04 µM)
EC50 (A549): 6.23 µg/mL (≈ 12.8 µM)
EC50 (SK-OV-3): 4.43 µg/mL (≈ 9.1 µM)

CCCCO[C@@H]1C=C2[C@@H]3CC[C@H]([C@H](C)/C=C/[C@H](C)C(C)C)[C@@]3(C)CC[C@@H]2[C@@]2(C)CC[C@H](O)C[C@]12O [HOMAXISTEROL A3]
EC50 (SK-MEL-2): 6.1 µg/mL (≈ 12.5 µM)
EC50 (XF498): 5.03 µg/mL (≈ 10.3 µM)
EC50 [1]: 7.1 µg/mL (≈ 14.6 µM)
EC50 (A549): 8.42 µg/mL (≈ 17.3 µM)
EC50 (SK-OV-3): 7.85 µg/mL (≈ 16.1 µM)

CCCCO[C@@H]1C=C2[C@@H]3CC[C@H]([C@H](C)/C=C/[C@H](CC)C(C)C)[C@@]3(C)CC[C@@H]2[C@@]2(C)CC[C@H](O)C[C@]12O [HOMAXISTEROL A4]
EC50 (SK-MEL-2): > 30 µg/mL
EC50 (XF498): 34.1 µg/mL (≈ 68.1 µM)
EC50 [1]: > 30 µg/mL
EC50 (A549): > 30 µg/mL
EC50 (SK-OV-3): > 30 µg/mL
